Where “and” joins values, the source holds several entries; their conditions need not be identical. Identical values can stand only once.
What was measured:
FL5.12 cells = test: Vacuolation assay; format: cell-based, murine; parameters: key to Vacuolation score: 0-100 score: (3×%cat3+2×%cat2+1×%cat1)/3; cells graded 0-3 for vacuoles; settings: FL5.12 cells, 3 h in 2.5 μM compound except where otherwise indicated, mean ± SEM, n ≥3
Procedure: In an exemplified study, nutrient transporter down-regulation was monitored by quantifying surface levels of the amino acid transporter-associated protein, CD98, by flow cytometry. Vacuolation was scored in a range from 0 to […], as determined by a vacuolation assay described in greater detail in the Materials and Methods section below.
Vacuolation assay: Cells were evaluated at 100× using brightfield microscopy and a Nikon TE2000-S fluorescence microscope equipped with DIC filters. Vacuolation was quantified after a 3 h incubation period in 2.5 μM compound except where otherwise indicated. To calculate a vacuolation score, vacuolation severity in at least 15 individual cells/experiment was assessed qualitatively. Scores were assigned to individual cells as follows: 0=no vacuoles, 1=very small vacuoles, 2=multiple well-defined vacuoles, 3=multiple large vacuoles. To calculate the vacuolation score associated with a compound, the following formula was used: vacuolation score=[(3×% cells in category 3)+(2×% cells in category 2)+(1×% cells in category 1)]/3.
The score is divided by 3 so that a compound with 100% of its cells in category 3 would have a vacuolation score of 100. Three independent experiments were conducted and the vacuolation scores averaged to generate a mean+/−SEM. All cells were scored by one lab member after confirming that a blinded individual scored 5 compounds with similar results.

[1] = tested on: subcutaneous SW620 xenograft tumors; test: SW620 xenograft study in nude mice; format: in vivo
Procedure: In even another exemplary study, anti-neoplasm potency of the constrained pyrrolidine sphingolipid-like compounds in xenograft tumor animal studies. Nude mice bearing subcutaneous SW620 xenograft tumors were treated daily with 10 mg/kg FTY720 or 20 mg/kg of compounds 5 or 15 by intraperitoneal injection. […] Furthermore, these compounds retain many of the beneficial abilities of FTY720, such as, for example water solubility, oral bioavailability, and anti-tumor activity but no longer trigger bradycardia. Thus, these compounds are ideal for medicaments and treatments for neoplasms.
SW620 and SW480 xenograft studies: For SW620 xenograft studies, two and one half million luciferase-expressing SW620 colon cancer cells suspended in PBS with 2% FCS are injected subcutaneously in the flank of 7 week old male nude mice (Charles Rivers Labs, Crl:NU(NCr)-Foxn1nu). When tumors reached 100 mm^3 in volume, mice are assigned to groups with matched average tumor volumes and animal weights. Four groups containing 7 mice are treated intraperitoneally with either vehicle (0.9% saline), 10 mg/kg FTY720, or 20 mg/kg compound 5 or compound 15. Tumor length and width are measured with calipers at 7 and 11 days of treatment. Tumor volume is calculated using the formula volume (mm^3)=length [mm]×(width [mm])^2×0.52. The average fold change in the volume of each tumor over time is shown.

S1P receptor 5 = target: T1, S1P receptor 5 (Homo sapiens, UniProt Q9H228); test: S1P receptor activation in CHO cells, S1P5; format: cell-based; settings: CHO cells over-expressing human S1P5
T1 construct: expressed in transfected cells
T1 sequence (Q9H228 whole entry): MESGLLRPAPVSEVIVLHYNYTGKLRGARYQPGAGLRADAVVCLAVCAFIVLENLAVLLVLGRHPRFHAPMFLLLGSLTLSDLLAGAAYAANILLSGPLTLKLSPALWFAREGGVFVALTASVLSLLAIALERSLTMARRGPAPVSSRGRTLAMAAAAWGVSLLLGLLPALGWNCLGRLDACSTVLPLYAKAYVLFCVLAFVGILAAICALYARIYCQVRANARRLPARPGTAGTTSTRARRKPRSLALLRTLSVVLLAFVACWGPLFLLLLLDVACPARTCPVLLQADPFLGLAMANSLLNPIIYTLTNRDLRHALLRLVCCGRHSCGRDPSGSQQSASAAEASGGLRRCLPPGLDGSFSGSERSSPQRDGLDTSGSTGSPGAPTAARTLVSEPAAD
From the text: (§1) Phosphorylation may have effects on S1P receptor activity that could cause bradycardia. Bradycardia, the dose-limiting toxicity that prevents the use of FTY720 in cancer patients, stems from FTY720-P's actions on S1P receptors 1 and 3. (Camm, J., et al. (2014) Am. Heart J. 168, 632-644; Cohen, J. A., Chun, J. (2011) Ann. Neurol. 69, 759-777; Sanna, M. G., et al. (2004) J. Biol. Chem. 279, 13839-13848; the disclosures of which are incorporated herein by reference). Phosphorylation by sphingosine kinase may make compounds competent to activate S1P receptors. FTY720, for example, when phosphorylated is known to activate S1P receptors 1 and 3. Because compound 5 could be phosphorylated, the activity of compound 5 and its phosphate 5-P (FIG. 28) on S1P receptors was evaluated (FIG. 32).
(§2) 51P1-5 activation: Chinese hamster ovary (CHO) cells stably over-expressing the different human 51P receptor subtypes are used. S1P1, S1P4 and S1P5 overexpressing CHO cells are cultured in medium containing alpha-MEM supplemented with 10% FBS, 50 μg/ml gentamycin and 0.5 mg/ml G418. S1P2 and S1P3 overexpressing CHO cells are cultured in RPMI containing 10% FBS, 50 μg/ml gentamycin and 0.5 mg/ml G418. Prior to stimulation, cells are rendered serum-free for 24 h. Stimulation is carried out for 10 min in serum-free DMEM containing 0.1 mg/ml of fatty-acid free BSA in the absence or presence of the various compounds or 51P. Protein lysates are prepared using a buffer containing (50 mM Tris pH 7.4, 150 mM NaCl, 10% glycerol, 1% Triton X-100, 2 mM EDTA, 2 mM EGTA, 40 mM β-glycerophosphate, 50 mM sodium fluoride, 10 mM sodium pyrophosphate, 2 mM dithiothreitol, 0.2 mM sodium orthovanadate). Cells are homogenized by one 5 sec burst in a MSE Ultrasonic Disintegrator, centrifuged and taken for protein determination. Equal amounts of protein are separated by SDS-PAGE (10% polyacrylamide gel), transferred to nitrocellulose membranes and subjected to Western blot analysis. Bands were stained using IRDye® secondary antibodies and visualized by the LICOR Odyssey® Fc Imaging system. Antibodies against phospho-Thr202/Tyr204-p42/p44-MAPK and phospho-Ser PKC substrate are from Cell Signaling, Frankfurt am Main, Germany. Polyclonal antisera against total p42 and total p44 were generated and characterized as previously described. (Huwiler, A.; Pfeilschifter, J. Br. J. Pharmacol. 1994, 113, 1455-1463; disclosure of which is incorporated herein by reference).

S1P receptor 3 = target: T2, S1P receptor 3 (Homo sapiens, UniProt Q99500); test: S1P receptor activation in CHO cells, S1P3; format: cell-based; settings: CHO cells over-expressing human S1P3
T2 construct: expressed in transfected cells
T2 sequence (Q99500 whole entry): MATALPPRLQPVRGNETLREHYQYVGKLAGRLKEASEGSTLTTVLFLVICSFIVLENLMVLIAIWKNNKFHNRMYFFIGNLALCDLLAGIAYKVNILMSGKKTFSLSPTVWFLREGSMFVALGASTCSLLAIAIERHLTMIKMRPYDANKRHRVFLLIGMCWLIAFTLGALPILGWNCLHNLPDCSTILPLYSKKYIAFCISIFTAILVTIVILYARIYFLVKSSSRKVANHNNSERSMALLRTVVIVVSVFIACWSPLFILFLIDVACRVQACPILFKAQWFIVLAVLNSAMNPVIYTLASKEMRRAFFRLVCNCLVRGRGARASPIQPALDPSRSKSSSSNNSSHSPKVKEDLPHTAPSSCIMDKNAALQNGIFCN
From the text: as §1, §2

Structure (SMILES) | Vacuolation score (FL5.12 cells; listed as 104) | tumor growth of SW620 xenografts ([1]; 20 mg/kg daily by intraperitoneal injection) | activation of S1P receptor 5 (S1P receptor 5) | activation of S1P receptor 3 (S1P receptor 3) | Vacuolation score (FL5.12 cells) | tumor growth of SW620 xenografts ([1]; 10 mg/kg daily by intraperitoneal injection)
CCCCCCCCc1ccc([C@H]2CCN[C@@H]2CO)cc1.Cl [Compound 5, (2S,3R)-2-(hydroxymethyl)-3-(4-octylphenyl)Pyrrolidinium chloride] | 81 and 81 ± 3 | inhibited tumor growth | failed to activate | failed to activate |  | 
CCCCCCCCc1ccc([C@@H]2CCN[C@H]2CO)cc1.Cl [Compound 6] |  |  | failed to activate | failed to activate |  | 
CCCCCCCCc1ccc(CCC(N)(CO)CO)cc1.Cl [FTY720, 2-Amino-2-[2-(4-octylphenyl)ethyl]propane 1,3-diol hydrochloride, reference compound] |  |  |  |  | 82 ± 4 | inhibited tumor growth
